From US20210147371A1, “OXADIAZOLINE DERIVATIVES” (Bayer Aktiengesellschaft, priority 2018, published 2021) come the findings set out here.

The data set can be described thus: Log P by HPLC on reversed phase columns (EEC directive 79/831 Annex V.A8). It is filed as physicochemical. On the procedure: Measurement of Log P values was performed according to EEC directive 79/831 Annex V.A8 by HPLC (High Performance Liquid Chromatography) on reversed phase columns with the following methods: • [^a]
If more than one Log P value is available within the same method, all the values are given and separated by “+”.
Calibration was done with straight-chain alkan2-ones (with 3 to 16 carbon atoms) with known Log P values (measurement of Log P values using retention times with linear interpolation between successive alkanones). Lambda-max-values were determined using UV-spectra from 200 nm to 400 nm and the peak values of the chromatographic signals.

Setting [1] is: method [a]: LC-UV, acidic range, 0.1% formic acid in water and acetonitrile, compounds of formula (I), read-out: Log P.
Setting [2] is: reversed phase HPLC columns, method [a]: LC-UV, acidic range, 0.1% formic acid in water and acetonitrile, compounds of formula (I), read-out: Log P.

Like-named read-outs stand apart in the source and are kept apart here.

Turning to `CN(C)C(=O)Oc1ccc(C2=NOC(C(F)(F)F)N2)cc1` (stereo not shown) [Compound I-03, 4-[5-(Trifluoromethyl)-4,5-dihydro-1,2,4-oxadiazol-3-yl]phenyl dimethylcarbamate], under setting [1], the chromatographic logP is 2.19.

As for `CC(=O)N1C(c2ccc(OC(=O)N(C)C)cc2)=NOC1C(F)(F)F` (stereo not shown) [Compound I-16, 4-[Acetyl-5-(trifluoromethyl)-4,5-dihydro-1,2,4-oxadiazol-3-yl]phenyl dimethylcarbamate], the chromatographic logP under setting [1] is 2.62.

As to `FC(F)(F)C1NC(c2ccc3c(cnn3Cc3ccccc3)c2)=NO1` (stereo not shown) [Compound I-23, 1-Benzyl-5-[(trifluoromethyl)-4,5-dihydro-1,2,4-oxadiazol-3-yl]-2H-indazole], the chromatographic logP under setting [2] is 3.

For the compound `FC(F)(F)C1NC(c2ccc3nn(Cc4ccccc4)cc3c2)=NO1` (stereo not shown) [Compound I-24, 2-Benzyl-5-[(trifluoromethyl)-4,5-dihydro-1,2,4-oxadiazol-3-yl]-2H-indazole], the chromatographic logP under setting [2] turned out to be 2.69.

As for `CN(C)C(=O)Oc1ccc(-c2noc(C(F)(F)F)n2)cc1` [IV-05, 4-[5-(Trifluoromethyl)-1,2,4-oxadiazol-3-yl]phenyl dimethylcarbamate], the chromatographic logP (method [a]: LC-UV, acidic range, 0.1% formic acid in water and acetonitrile, intermediates of formula (IV), read-out: LogP) was 3.37.

As to `FC(F)(F)c1nc(-c2ccc3nn(Cc4ccccc4)cc3c2)no1` [IV-15, 2-Benzyl-5-[5-(trifluoromethyl)-1,2,4-oxadiazol-3-yl]-1H-indazole], the chromatographic logP (reversed phase HPLC columns, method [a]: LC-UV, acidic range, 0.1% formic acid in water and acetonitrile, intermediates of formula (IV), read-out: LogP) turned out to be 4.03.

Consider `FC(F)(F)c1nc(-c2ccc3c(cnn3Cc3ccccc3)c2)no1` [IV-17, 1-Benzyl-5-[5-(trifluoromethyl)-1,2,4-oxadiazol-3-yl]-1H-indazole], for which the chromatographic logP is 4.39.
